“And” between values parts separate entries of the source, which are not always exact repeats. Identical values can stand only once.
How the values were obtained:
[1] = tested on: CD8^+/TCR^− FC; test: CpG ODN / LPS stimulation of sorted FC, cytokine production by ELISA / multiplex; assay type: cell-based, mice
Method: (§1) CpG oligodeoxynucleotides (ODN) stimulation. Sorted p-preDC or FC were cultured for 18 hours at 10^5 cells/200 μL in 96 well round-bottom culture plates in culture medium in the presence or absence of Toll-like receptor (TLR)-9 ligand, CPG-ODN 1668 (TCCATGACGTTCCGATGCT) (SEQ ID NO. 1) (GibcoBRL Custom Primers) at 1 μM, TLR-4 ligand, LPS from Escherichia coli (Sigma, MO, USA) at 10 μg/ml, as previously described^30. CpG or LPS-treated or untreated cells were subsequently assayed for: 1) the expression of DC activation/maturation cell surface markers by FACS, 2) their survival rate by 7AAD staining, or 3) morphological appearance by Wright Giemsa staining on cytospins. The supernatant of these cultures were collected for analysis of the production of different cytokines by ELISA.
Cytokine production by ELISA. Briefly, the cell-free supernatants of 12H, 18H, or 24H cultured cells (FC or p-preDC,) with or without CpG ODN or LPS were collected and kept frozen at −80° C. The amount of cytokine produced was determined by 1) ELISA kits for mouse IFN-α (R&D system) and mouse TNF-α (Biosource International), and 2). Multiplex for MIP 1αCCL3), GM-CSF, MCP-1 (CCL2), RANTES (CCL5), IFN-γ, IL-1β, IL-2, IL-4, IL-5, IL-6, IL-10, IL-12p70, IL-9, and IL13 on 18 hour incubation supernatants from three different experiments performed by Linco Diagnostic Services (St. Charles, Mo.).

[2] = tested on: CD8^+/TCR^− FC; test: Activation marker expression on sorted FC after 18 h culture (FACS); assay type: cell-based, mice
From the text: (§2) mAbs and Flow cytometry. The following mAbs (all from BD Biosciences Pharmingen, San Diego, Calif., except those labeled with APC-cy-7 from eBioscience, San Diego, Calif.) were used. To sort CD8^+/TCR^− FC: anti-CD8α (53-6.7) PE-labeled, anti-TCR β chain (H57-597) and anti-TCR γδ chain (GL3) FITC-labeled. To sort B220^+/CD11c^dim/CD11b^− p-preDC: anti-CD11b (M1/70) APC-labeled, anti-CD45R/B220 (RA3-6B2) APC-Cy7-labeled, anti-CD11c (HL3) PE-labeled, and anti-TCR β chain (H57-597), anti-TCR γδ chain (GL3), anti-CD14 (rmC5-3), anti-CD19 (1D3), anti-Pan-NK cells (DX5), and anti-NK1.1 (PK136), all FITC-labeled. To sort HSC: anti-TCR β chain (H57-597), anti-TCR γδ chain (GL3), anti-Ly-6G (Gr-1), anti-CD11b, Mac1 (M1/70), anti-CD8α (53-6.7) and anti-CD45R/B220 (RA3-6B2), all FITC-labeled, anti-Ly-6A/E (Sca-1) (E13-161.7) PE-labeled and anti-c-Kit (CD117) (2B8) APC-labeled. To restain the sorted FC population: purified anti-CD16/CD32 (FcγIII/II receptors) (2.4G2), anti-CD11c (HL3), anti-CD4 (RM4-5) and anti-CD19 (1D3) all APC-labeled, anti-CD45R/B220 (RA3-6B2) PerCP-labeled, and anti-Pan-NK cells (DX5), anti-NK1.1 (PK136), anti-CD14 (rmC5-3), and anti-Ly-6G (Gr-1) FITC-labeled. To analyze the activation state: anti-CD80 (B7-1) ([…]), anti-CD86 (B7-2) ([…]), and anti-I-A^b (Aβ^b) (AF6-120.1) FITC-labeled. For PBL typing and multilineage chimerism: anti-H-2 K^b (AF6-88.5) PE or FITC-labeled, anti-H-2K^k (36-7-5) PE or FITC-labeled, anti-TCR β chain (H57-597), anti-NK1.1 (PK136), anti-Ly-6G (Gr-1), anti-CD11b, Mac1 (M1/70) and anti-CD45R/B220 (RA3-6B2) all FITC-labeled. Detection of dead cells after cell culture was determined by using a 7-Amino-actinomycin D (7-AAD) (Molecular Probes, Eugene, Oreg.) followed by FACS analysis.
as §1

[3] = tested on: B220^+/CD11c^dim/CD11b^− p-preDC; test: Activation marker expression on sorted p-preDC after 18 h culture (FACS); assay type: cell-based, mice
From the text: as §2, §1

[4] = tested on: CD8^+/TCR^− FC; test: Cell death of sorted FC after overnight culture (7AAD staining); assay type: cell-based, mice
From the text: as §2, §1

[5] = tested on: B220^+/CD11c^dim/CD11b^− p-preDC; test: Cell death of sorted p-preDC after overnight culture (7AAD staining); assay type: cell-based, mice
From the text: as §2
CpG oligodeoxynucleotides (ODN) stimulation. […]

[6] = tested on: FC from cultured BM; test: Culture of BMC with FL for 10 days, expansion of FC; assay type: cell-based, mice; details: 10 days in culture with FL, n=8
Method: (§3) Culture of BMC with FL. BMC were resuspended at 10^6 cells/ml in culture medium consisting of RPMI 1640 (Gibco), 10% FBS (Gibco), 1 mM Sodium pyruvate (Gibco), 10 mM Hepes (Gibco), 2 mM L-Glutamine (Gibco), Penicillin 100 U/mL, 100 μg/mL Streptomycin, (Gibco), and 10^−5 M 2-mercaptoethanol (Sigma), supplemented with human FL (100 ng/ml, generous gift from Amgen, Seattle, Wash.). Every 5 days of culture, half of the medium was replaced by fresh cytokine-supplemented culture medium according to a protocol previously described^30.
(§4) Cell sorting. HSC, FC, and p-preDC were sorted as previously described^9,30,49. HSC were sorted for Sca-1^+c-Kit^+Lin^− expression, FC were sorted for CD8α^+/TCRαβ^−/TCRγδ^− expression, and p-preDC were sorted for CD11c^dim/CD11b^−/B220^+ expression. Briefly, BMC were incubated with Abs on ice for 30 minutes, cells were washed twice in the CSM, filtered, and resuspended to a final concentration of 2.5×10^6 cells/mL in the CSM for cell sorting. The isolation of the cell populations was performed on FACSVantage Flow Cytometers (Becton Dickinson). The populations of interest were isolated from the live lymphoid gate, and after reanalysis, only cells with a purity of >94% were used.

[7] = tested on: p-preDC from cultured BM; test: Culture of BMC with FL for 10 days, expansion of p-preDC; assay type: cell-based, mice; details: 10 days in culture with FL, n=4
Method: as §3, §4

[8] = tested on: FL-derived p-preDC; test: Cytokine production by sorted FL-derived p-preDC (ELISA); assay type: cell-based, mice; details: p-preDC from FL bone marrow culture, overnight culture
Method: as §3
as §1, with “The supernatant of these cultures were collected for analysis of the production of different cytokines by ELISA.” left out
Cytokine production by ELISA. […] The amount of cytokine produced was determined by 1) ELISA kits for mouse IFN-α (R&D system) and mouse TNF-α (Biosource International), and 2). […]

[9] = tested on: FC population in PB; test: Flt3-ligand treatment of mice, subtypes in the mobilized FC population in PB; assay type: in vivo, B10.BR mice
Method: Flt3-ligand treatment of mice. Recombinant human Flt-3 Ligand (FL, kindly provided by Amgen, Seattle, Wash.) was diluted in sterile, filtered, endotoxin-free water at a concentration of 100 μg/ml. Donor B10.BR mice were subcutaneously injected with 10 μg of FL daily for 10 days. B10.BR control mice were injected with saline only. At the end of the treatment, peripheral blood was harvested and collected into heparinized tubes.
Phenotypic analysis of sorted FC. Sorted FC isolated from fresh BMC or FL-mobilized peripheral blood, with a purity ranging from 94 to 98%, were incubated with Fc receptor block (anti-CD16/CD32) before staining with different lineage specific markers, including anti-CD4, CD11c, B220, NK1.1, DX5, CD14, Gr1, and CD19. During reanalysis of sorted FC, less than 1% of contaminating T cells (TCRαβ FITC and TCRγδFITC) were detected, which therefore allowed the use of FITC-conjugated specific markers for further analysis. To validate the specificity of staining, various conjugates of the same antibody were used, including CD11c, CD4 and CD19 conjugated to FITC and APC, as well as B220 conjugated with PerCP, APC, or FITC (not shown). To analyze the subtypes of DC in the sorted FC population, sorted FC were blocked and stained with CD11b FITC, CD11c APC and B220 PerCP mAbs to determine the presence of myeloid pre-DC (CD11c^+/B220^−/CD11b^+), p-preDC (CD11c^dim/B220^+/CD11b^−), the common precursor population for DC (CD11c^+/B220^+/CD11b^+) or mature lymphoid DC (CD8α^+/CD11c^+/CD11b^−/B220^−). The cells were washed twice in CSM, and analyzed on a FACS Calibur using Cell Quest Software (Becton Dickinson, Mountainview, Calif.).

[10] = CpG ODN stimulation, 18 hours, multiplex
[11] = FL-derived FC and FL-derived p-preDC (FIG. 4c), CpG-ODN overnight
[12] = after culture with medium or CpG stimulation
[13] = FL-derived FC, CpG ODN exposure overnight
[14] = fresh BM FC, overnight exposure to CpG ODN, n=4
[15] = FL-derived p-preDC, CpG ODN exposure overnight
[16] = fresh BM p-preDC, overnight exposure to CpG ODN, n=2
[17] = fresh FC, overnight culture with CpG
[18] = p-preDC from 10 day FL-cultured BMC versus fresh p-preDC
[19] = mice treated with FL for 10 days (data not shown)
[20] = mice treated with FL for 10 days, sorted FC from PB

CpG ODN: Toll-like receptor (TLR)-9 ligand, CPG-ODN 1668 (TCCATGACGTTCCGATGCT) (SEQ ID NO. 1) (DNA, backbone and methylation of C not given here)
IL-6 production by FC [1, 10]: moderate amounts | IL-12p70 production by FC [1, 10]: low levels | Mip1-α/CCL3 production by FC [1, 10]: high amounts | RANTES/CCL5 production by FC [1, 10]: moderate amounts | TNF-α production by FC ([1]; CpG ODN stimulation, 24 hours, ELISA): large amounts | IFN-α secretion of FL-derived cells after CpG-ODN [1, 11]: increased further | IL-12p70 production of FL-derived cells after CpG-ODN [1, 11]: increased further | TNF-α production of FL-derived cells after CpG-ODN [1, 11]: increased further | GM-CSF production by FC [1, 12]: no | IFN-γ production by FC [1, 12]: low amounts | IL9 production by FC [1, 12]: low amounts | IL-1β production by FC [1, 12]: no | IL-2 production by FC [1, 12]: no | IL-4 production by FC [1, 12]: no | IL-5 production by FC [1, 12]: no | IL-10 production by FC [1, 12]: low amounts | IL-13 production by FC [1, 12]: no | MCP-1/CCL2 production by FC [1, 12]: low amounts | IFN-α production by FC ([1]; sorted bone marrow FC cultured with stimulus, ELISA): levels similar to those produced by p-preDC | CD80 expression on FL-derived FC after CpG ODN [2, 13]: 48% | CD86 expression on FL-derived FC after CpG ODN [2, 13]: 77% | Class II expression on FL-derived FC after CpG ODN [2, 13]: 73% | CD80 expression on FC [2, 14]: 23.5±8% | CD86 expression on FC [2, 14]: 86±12% | Class II expression on FC [2, 14]: 74±6.5% | CD80 expression on FL-derived p-preDC after CpG ODN [3, 15]: 63% | CD86 expression on FL-derived p-preDC after CpG ODN [3, 15]: 87% | Class II expression on FL-derived p-preDC after CpG ODN [3, 15]: 88% | CD80 expression on p-preDC [3, 16]: 12.5±1% | CD86 expression on p-preDC [3, 16]: 85±13% | Class II expression on p-preDC [3, 16]: 39±4% | decrease of mortality of FL-treated FC ([4]; FL-derived FC, CpG ODN overnight versus medium): 10-15% | decrease of FC mortality compared to media alone [4, 17]: 10% | mortality of FC (dead cells) [4, 17]: 43.5±3.5% | rescue of FL-derived p-preDC from death ([5]; CpG exposure (data not shown)): partially rescued | mortality of p-preDC (dead) ([5]; fresh p-preDC, overnight culture with CpG): 35±0.3%

B1: FL: Recombinant human Flt-3 Ligand (FL, kindly provided by Amgen, Seattle, Wash.) (protein, UniProt P49771 27-235, looked up)
Fms-related tyrosine kinase 3 …: TQDCSFQHSPISSDFAVKIRELSDYLLQDYPVTVASNLQDEELCGGLWRLVLAQRWMERLKTVAGSKMQGLLERVNTEIHFVTKCAFQPPPSCLRFVQTNISRLLQETSEQLVALKPWITRQNFSRCLELQCQPDSSTLPPPWSPRPLEATAPTAPQPPLLLLLLLPVGLLLLAAAWCLHWQRTRRRTPRPGEQVPPVPSPQDLLLVEH
IFN-α production by FL-derived FC ([1]; FC from 10 day FL-cultured BM, overnight culture, medium): significant amounts of IFN-α | CD80 expression on FL-derived FC ([2]; FC from 10 day FL-cultured BMC, overnight culture, medium, versus 11% of fresh FC): 47% | CD86 expression on FL-derived FC ([2]; FC from 10 day FL-cultured BMC, overnight culture, medium, versus 17% of fresh FC): 51% | Class II expression on FL-derived FC ([2]; FC from 10 day FL-cultured BMC, overnight culture, medium, versus 18% of fresh FC): 40% | CD80 level on FL-derived p-preDC [3, 18]: upregulated | CD86 level on FL-derived p-preDC [3, 18]: upregulated | Class II level on FL-derived p-preDC [3, 18]: upregulated | death of FL-derived FC after overnight culture ([4]; FC from 10 day FL-cultured BM, medium, n=3, versus 53.6% fresh cells): 71% | death of FL-derived p-preDC after overnight culture ([5]; versus fresh cells (data not shown)): more sensitive to death | increase in FL-derived FC from cultured BM [6]: 7 fold | increase in FL-p-preDC from cultured BM [7]: 17 fold | IFN-α production by FL-derived p-preDC [8]: also produced IFN-α | expansion of FC in PB ([9]; FL-treatment of mice): significantly expands | FL-FC in the PB expressing CD14 [9, 19]: none | FL-FC in the PB expressing CD19 [9, 19]: none | CD11c^bright population (mature DC) in FL-FC [9, 20]: 20% | CD11c^dim population (p-preDC phenotype) in FL-FC [9, 20]: 60% and 60-65% | FL-FC in the PB expressing CD11c [9, 20]: 85-90% | FL-FC in the PB expressing NK1.1 [9, 20]: 5-7%
